Data from PMC10198977, “Computational design of dynamic receptor—peptide signaling complexes applied to chemotaxis” (Nature Communications, 2023).
Residues, ends and D or L forms follow the SMILES beside them. No end group written: not given here.

Assays:
WT CXCR4 [1] = molecular target: T1, WT CXCR4 (Homo sapiens, UniProt P61073); test: Gαi BRET of peptides on WT CXCR4; assay type: cell-based; details: WT receptor, Gi
Procedure: (§1) Lyophilized peptides were stored at −80 °C and resuspended in assay buffer on the day of the experiment.
(§2) 40,000 HEK 293T cells were transiently transfected with WT or variant HA3-CXCR4, Gαi1−91-Rluc8, Gβ3-WT, and Gγ9-GFP2 in pcDNA3.1(+) at a ratio of 10:1:10:5 respectively. Cells were first seeded in 100 µL DMEM 10% FBS in a poly-lysine coated, white-walled, white-bottom 96-well plate. Directly after cell loading, 50 µL of the mixture containing Lipofectamine 2000 and the DNA was added on top of the cells. The cells were then left to incubate at 37 °C, 5% CO2, and 95% relative humidity for 20 h, after which, 150 µL media was refreshed. Cells were assayed 48 h post-transfection. Cells were washed with 150 µL PBS, then 40 µL BRET buffer (HBSS, 0.2% Glucose) was added to each well. Coelenterazine 400a was first added at a final concentration of 2.5 µM and BRET ratios were measured once using Mithras[2] LB 943 plate reader. After the first measurement, 40 µL of a 3x concentrated agonist solution was added to each well, and BRET ratios were measured for another 30 min using a Mithras[2] LB 943 plate reader. Mock-transfected controls were subtracted from the data. Maximum values averaged from 3 replicates were then plotted against selected concentrations and fitted to a sigmoidal curve using GraphPad Prism v9.

WT CXCR4 [2] = molecular target: T1, WT CXCR4; test: Calcium mobilization of peptides on WT CXCR4; assay type: cell-based; details: WT receptor, Ca
Procedure: as §1
(§3) Calcium mobilization assays
(§4) 40,000 HEK 293T cells (gift from Prof. Ted Wensel at Baylor College of Medicine) were transiently transfected with 50 ng WT or variant HA3-CXCR4, 10 ng GNA15 in pcDNA3.1(+). To equalize receptor surface expression, 75 ng of HA3-CXCR4 was used for the Csel2 variant. Cells were first seeded in 100 µL DMEM (Gibco, ref: 41965-039) 10 % FBS in a black-walled, clear-bottom 96-well plate coated with poly-lysine (Sigma, ref: P6407-5MG). Directly after cell loading, 50 µL of the mixture containing 0.5 µL Lipofectamine 2000 (Invitrogen, ref: 11668-019) and the DNA was added on top of the cells. The cells were incubated at 37 °C, 5% CO2, and 95% relative humidity for 20 h, after which, media was refreshed with 150 µL DMEM + 10% FBS. Cells were assayed 48 h post-transfection. Cells were washed with 200 µL FLIPR6 buffer (HBSS + 20 mM HEPES, pH 7.4), then incubated at 37 °C, 5% CO2, and 95% relative humidity for 2 h in 200 µL dye buffer according to the manufacturer’s protocol (Molecular Devices, ref: R8190). Just before the assay, 5× concentrated peptide solutions were prepared in FLIPR6 buffer in a V-bottom 96-well plate. After incubation, peptide solutions were added at a rate of 16 µL/s after 30 s and fluorescence changes were monitored for 90 s after addition using microplate reader FlexStation3 (Molecular Devices). The maximum response after correction by the mock-transfected condition was averaged from three replicates. Values were then plotted against selected concentrations and fitted to a sigmoidal curve using GraphPad Prism v9.

Csedy [3] = molecular target: T2, Csedy (Homo sapiens, UniProt P61073); test: Calcium mobilization of peptides on Csedy; assay type: cell-based; details: Csedy receptor, Ca
T2 sequence (P61073 whole entry): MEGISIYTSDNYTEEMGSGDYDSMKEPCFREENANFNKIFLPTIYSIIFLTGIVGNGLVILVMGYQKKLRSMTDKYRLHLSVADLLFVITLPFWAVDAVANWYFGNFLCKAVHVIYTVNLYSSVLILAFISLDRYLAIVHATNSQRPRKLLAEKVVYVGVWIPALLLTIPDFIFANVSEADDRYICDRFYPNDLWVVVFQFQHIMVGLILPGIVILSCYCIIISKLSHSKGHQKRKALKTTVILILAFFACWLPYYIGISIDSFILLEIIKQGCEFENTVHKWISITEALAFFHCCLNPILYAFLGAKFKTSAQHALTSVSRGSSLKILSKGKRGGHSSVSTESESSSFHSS
Procedure: as §1, §3, §4

Csedy [4] = molecular target: T2, Csedy; test: Gαi BRET of peptides on Csedy; assay type: cell-based; details: Csedy receptor; for log(EC50): Gi
Procedure: as §1, §2

[5] = molecular target: Csel2 designed CXCR4 receptor (UniProt P61073)
[6] = molecular target: WT CXCR4 with an N-terminal 3xHA-tag (UniProt P61073)
Gαi activation = test: Gαi dissociation BRET of designed receptors with WT CXCL12(1-17) peptide; assay type: cell-based; details: WT CXCL12 peptide
Procedure: as §1, §2

[7] = test system: CXCR4 variant ligand-binding cavity; test: Receptor cavity cross-sectional area and structure-function map; details: receptor–peptide pair; Fig. 5c z-axis
Text: Calculation of receptor cavity cross-sectional area
To quantify the conformational diversity of the ligand binding site between receptor variants, the ligand-binding pocket of the receptor models (from whose the ligand molecule was removed) was geometrically described using pyKVFinder[75]. Cavities were defined using a 1.2 Å probe over a cubic lattice (0.25 Å vertex). A 4.0 Å probe was used to define the entrance of the cavity.

[8] = molecular target: Csedy designed CXCR4 receptor (UniProt P61073)
[9] = molecular target: Cdyn designed CXCR4 receptor (UniProt P61073)
[10] = molecular target: Csel2 designed CXCR4 receptor (UniProt P61073); remark: listed apart in the source
[11] = molecular target: Cdyn designed CXCR4 receptor (UniProt P61073); remark: listed apart in the source
[12] = molecular target: Csedy designed CXCR4 receptor (UniProt P61073); remark: listed apart in the source

T1 sequence (P61073 whole entry): as above

Question: Which Efficacy (WT CXCR4 [1]; average (n=3)) does the source give for `CC(C)C[C@H](NC(=O)[C@H](CO)NC(=O)[C@@H](NC(=O)[C@@H]1CCCN1C(=O)[C@@H](N)CCCCN)C(C)C)C(=O)N[C@@H](CO)C(=O)N[C@@H](Cc1ccc(O)cc1)C(=O)N[C@@H](CCCNC(=N)N)C(=O)N[C@@H](CS)C(=O)N1CCC[C@H]1C(=O)N[C@@H](CS)C(=O)N[C@@H](CCCNC(=N)N)C(=O)N[C@@H](Cc1ccccc1)C(=O)N[C@@H](Cc1ccccc1)C(=O)N[C@@H](CCC(=O)O)C(=O)N[C@@H](CO)C(=O)N[C@@H](Cc1c[nH]cn1)C(N)=O` [WT, reference compound] (H-KPVSLSYRCPCRFFESH-NH2) here?
Answer: 100 % WT

Question: What about the EC50 (WT CXCR4 [1]; replicate 1) of the same molecule?
Answer: 11.2 µM

Question: And the EC50 (WT CXCR4 [1]; replicate 2)?
Answer: 9.75 µM

Question: What about the EC50 (WT CXCR4 [1]; replicate 3) of the same molecule?
Answer: 12 µM

Question: And the Efficacy (WT CXCR4 [2]; average (n=3))?
Answer: 100 % WT

Question: And the EC50 (WT CXCR4 [2]; replicate 1)?
Answer: 12.9 µM

Question: And the EC50 (WT CXCR4 [2]; replicate 2)?
Answer: 8.57 µM

Question: What about the EC50 (WT CXCR4 [2]; replicate 3) of the same molecule?
Answer: 15.3 µM

Question: How did the Efficacy (Csedy [3]; average (n=3)) turn out when `CC(C)C[C@H](NC(=O)[C@H](CO)NC(=O)[C@H](Cc1ccc(O)cc1)NC(=O)[C@@H]1CCCN1C(=O)[C@@H](N)CCCCN)C(=O)N[C@@H](CO)C(=O)N[C@@H](CC(C)C)C(=O)N[C@@H](CCCNC(=N)N)C(=O)N[C@@H](CS)C(=O)N1CCC[C@H]1C(=O)N[C@@H](CS)C(=O)N[C@@H](CCCNC(=N)N)C(=O)N[C@@H](Cc1ccccc1)C(=O)N[C@@H](Cc1ccccc1)C(=O)N[C@@H](CCC(=O)O)C(=O)N[C@@H](CO)C(=O)N[C@@H](Cc1c[nH]cn1)C(N)=O` [V3Y-Y7L] (H-KPYSLSLRCPCRFFESH-NH2) was run?
Answer: 102.027 % WT

Question: And the “log(EC50)” value (Csedy [3]; replicate 1)?
Answer: -5.519

Question: What about the “log(EC50)” value (Csedy [3]; replicate 2) of the same molecule?
Answer: -5.737

Question: What about the “log(EC50)” value (Csedy [3]; replicate 3) of the same molecule?
Answer: -5.907

Question: What about the increase in efficacy (Csedy [4]; vs WT receptor–peptide pair) of the same molecule?
Answer: > 34%

Question: What about the “log(EC50)” value (Csedy [4]; replicate 1) of the same molecule?
Answer: -6.83

Question: What about the “log(EC50)” value (Csedy [4]; replicate 2) of the same molecule?
Answer: -7.058

Question: And the “log(EC50)” value (Csedy [4]; replicate 3)?
Answer: -7.474

Question: What does the source list for KPVSLSLRCPCRFFESH-NH2 (cysteine pairing not given here) [CXCL12 Y7L variant peptide (17 N-terminal residues)]?
Answer: Gαi efficacy (BRET) with the Y7L peptide, increase [5]: 30%; overall Gαi response (BRET) with the Y7L peptide, decrease [6]: 18%

B1: Cdyn: CXCR4 receptor design maintaining conformational dynamism; 3 mutations (protein, UniProt P61073 1-352, looked up, variant L41A S178A H113N)
C-X-C chemokine receptor type …: MEGISIYTSDNYTEEMGSGDYDSMKEPCFREENANFNKIFAPTIYSIIFLTGIVGNGLVILVMGYQKKLRSMTDKYRLHLSVADLLFVITLPFWAVDAVANWYFGNFLCKAVNVIYTVNLYSSVLILAFISLDRYLAIVHATNSQRPRKLLAEKVVYVGVWIPALLLTIPDFIFANVAEADDRYICDRFYPNDLWVVVFQFQHIMVGLILPGIVILSCYCIIISKLSHSKGHQKRKALKTTVILILAFFACWLPYYIGISIDSFILLEIIKQGCEFENTVHKWISITEALAFFHCCLNPILYAFLGAKFKTSAQHALTSVSRGSSLKILSKGKRGGHSSVSTESESSSFHSS
Question: With B1 as the molecule, how does the “enhanced potency from WT” value (Gαi activation; up to) read?
Answer: up to 11 -fold

Question: What about the “enhanced potency in Gαi-coupling” value (Gαi activation; over WT CXCR4) of the same molecule?
Answer: ~11 -fold

Question: And the “increase in efficacy (Gαi)” value (Gαi activation; vs WT CXCR4)?
Answer: 20%

Question: What about the “Potency (activity shift from WT)” value [7] of the same molecule?
Answer: 1.794

Question: What does the source list for KPVSLSYRCPCRFFESH-NH2 (cysteine pairing not given here) [wild-type peptide of the 17 N-terminal residues of CXCL12]?
Answer: Gαi response (BRET) against WT CXCL12 peptide, fold increase over WT CXCR4 [8]: > 9 fold; Gαi efficacy (BRET, WT CXCL12 peptide), increase over the CXCR4 WT scaffold [9]: 20%; Gαi potency (BRET, WT CXCL12 peptide), fold over the CXCR4 WT scaffold [9]: 11 fold; potency in Gαi-coupling (BRET, HEK 293T cells, WT CXCL12 peptide), fold over WT CXCR4 [10]: 3.2 fold; potency in calcium mobilization (HEK 293T cells, WT CXCL12 peptide), fold over WT CXCR4 [10]: 3.1 fold

Question: Which results are given for KPYSLSYRCPCRFFESH-NH2 (cysteine pairing not given here) [CXCL12 V3Y variant peptide (17 N-terminal residues)]?
Answer: efficacy of signaling, increase over the WT receptor-peptide pair [11]: 25%; potency of signaling, fold over the WT receptor-peptide pair [11]: > 80 fold

Question: KPYSLSLRCPCRFFESH-NH2 (cysteine pairing not given here) [CXCL12 V3Y-Y7L variant peptide (17 N-terminal residues)] was tested. Which efficacy of signaling, increase [12] did it give?
Answer: 34%

Question: What about the potency of signaling, fold increase [12] of the same molecule?
Answer: > 100 fold
